In PubChem BioAssay (NCI):
Where “and” joins values, the source holds several entries; their conditions need not be identical. Identical values can stand only once.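 1) Cells in 96-well plates. 2) Compound, 48 h, 5 concentrations. 3) Linear interpolation between surrounding doses. 4) Unreached endpoint = highest concentration. At the GI50, growth is halved. At the TGI there is no net growth.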

Tests used:
Experiment in all cases: NCI-60 cell line screen, 48 h
UACC-62 melanoma = test system: UACC-62 melanoma
MDA-MB-435 = test system: MDA-MB-435
U251 CNS = test system: U251 CNS
SNB-75 CNS = test system: SNB-75 CNS
HCT-116 colon = test system: HCT-116 colon
HCC-2998 colon = test system: HCC-2998 colon
HOP-92 NSCLC = test system: HOP-92 NSCLC
ACHN renal = test system: ACHN renal
CCRF-CEM leukemia = test system: CCRF-CEM leukemia
SF-268 CNS = test system: SF-268 CNS
NCI/ADR-RES ovarian = test system: NCI/ADR-RES ovarian
RXF 393 renal = test system: RXF 393 renal

CC(C)C[C@H](NC(=O)CCc1cccc2ccccc12)B(O)O
TGI (UACC-62 melanoma): 5.59 µM
TGI (MDA-MB-435): 1.02 µM
TGI (U251 CNS): 19.6 µM
TGI (SNB-75 CNS): > 22.6 µM
TGI (HCT-116 colon): 2.91 µM
TGI (HCC-2998 colon): 2.62 µM
TGI (HOP-92 NSCLC): 7.37 µM
TGI (ACHN renal): > 100 µM
TGI (SF-268 CNS): 10.1 µM
TGI (NCI/ADR-RES ovarian): 11.7 µM
TGI (RXF 393 renal): 2.03 µM

CC1(C)CN=C(Nc2ccc(F)c(Cl)c2)S1
TGI (UACC-62 melanoma): > 100 µM
TGI (MDA-MB-435): > 100 µM
TGI (U251 CNS): > 100 µM
TGI (SNB-75 CNS): > 100 µM
TGI (HCT-116 colon): > 100 µM
TGI (HCC-2998 colon): > 100 µM
TGI (HOP-92 NSCLC): > 100 µM
TGI (ACHN renal): > 100 µM
TGI (CCRF-CEM leukemia): > 100 µM
TGI (SF-268 CNS): > 100 µM
TGI (NCI/ADR-RES ovarian): > 100 µM
TGI (RXF 393 renal): > 100 µM

O=C1c2cc([N+](=O)[O-])sc2C(=O)c2cc([N+](=O)[O-])sc21
TGI (UACC-62 melanoma): 3.8 µM
TGI (MDA-MB-435): 4.73 µM
TGI (U251 CNS): 3.38 µM
TGI (SNB-75 CNS): 26.3 µM
TGI (HCT-116 colon): 3.24 µM
TGI (HCC-2998 colon): 8.56 µM
TGI (HOP-92 NSCLC): 4.04 µM
TGI (ACHN renal): 10.1 µM
TGI (CCRF-CEM leukemia): > 19.8 µM
TGI (SF-268 CNS): 10 µM
TGI (NCI/ADR-RES ovarian): 11.3 µM
TGI (RXF 393 renal): 15.5 µM

CCSc1nc(C)nc2c1sc1nc3ccccc3n12
TGI (UACC-62 melanoma): > 100 µM
TGI (MDA-MB-435): > 100 µM
TGI (U251 CNS): > 100 µM
TGI (SNB-75 CNS): > 100 µM
TGI (HCT-116 colon): > 100 µM
TGI (HCC-2998 colon): > 100 µM
TGI (HOP-92 NSCLC): > 100 µM
TGI (ACHN renal): > 100 µM
TGI (CCRF-CEM leukemia): > 100 µM
TGI (SF-268 CNS): > 100 µM
TGI (NCI/ADR-RES ovarian): > 100 µM
TGI (RXF 393 renal): > 100 µM

O=C(N[C@@H](Cc1ccccc1)B(O)O)[C@H](Cc1cccc2ccccc12)NC(=O)N1CCOCC1
TGI (UACC-62 melanoma): 0.0119 µM and 0.0391 µM
TGI (MDA-MB-435): 0.00103 µM
TGI (U251 CNS): 0.132 µM and 0.174 µM
TGI (SNB-75 CNS): 0.0558 µM
TGI (HCT-116 colon): 0.00208 µM
TGI (HCC-2998 colon): 0.00339 µM
TGI (HOP-92 NSCLC): 0.00744 µM
TGI (ACHN renal): 24.6 µM
TGI (CCRF-CEM leukemia): 0.0022 µM
TGI (SF-268 CNS): 0.00654 µM and 0.058 µM
GI50 (NCI/ADR-RES ovarian): 7.31 µM
TGI (NCI/ADR-RES ovarian): > 100 µM
TGI (RXF 393 renal): 0.00379 µM

COC(=O)C1SC[C@H]2C(=O)N(c3ccccc3)C(=O)N12 (stereo partly specified)
TGI (UACC-62 melanoma): > 100 µM
TGI (MDA-MB-435): > 100 µM
TGI (U251 CNS): > 100 µM
TGI (SNB-75 CNS): > 100 µM
TGI (HCT-116 colon): > 100 µM
TGI (HCC-2998 colon): > 100 µM
TGI (HOP-92 NSCLC): > 100 µM
TGI (ACHN renal): > 100 µM
TGI (CCRF-CEM leukemia): > 100 µM
TGI (SF-268 CNS): > 100 µM
TGI (NCI/ADR-RES ovarian): > 100 µM
TGI (RXF 393 renal): > 100 µM

C[C@H]1[C@H](C)CC[C@]2(C(=O)OC3OC(CO)C(O)C(O)C3O)CC[C@]3(C)C(=CC[C@@H]4[C@@]5(C)C[C@@H](O)[C@@H]6OC(=O)c7cc(O)c(O)c(O)c7-c7c(cc(O)c(O)c7O)C(=O)OC[C@]6(CO)[C@@H]5CC[C@]43C)[C@H]12 (stereo partly specified)
TGI (UACC-62 melanoma): > 100 µM
TGI (MDA-MB-435): 32.9 µM
TGI (U251 CNS): 34.7 µM
TGI (SNB-75 CNS): > 100 µM
TGI (HCT-116 colon): > 100 µM
TGI (HCC-2998 colon): > 100 µM
TGI (HOP-92 NSCLC): > 100 µM
TGI (ACHN renal): > 100 µM
TGI (CCRF-CEM leukemia): 69.2 µM
TGI (SF-268 CNS): > 100 µM
TGI (NCI/ADR-RES ovarian): > 100 µM
TGI (RXF 393 renal): > 100 µM

Nc1ncnc2c1cnn2COCC(O)CO (stereo unspecified)
TGI (UACC-62 melanoma): > 100 µM
TGI (MDA-MB-435): > 100 µM
TGI (U251 CNS): > 100 µM
TGI (HCT-116 colon): > 100 µM
TGI (HCC-2998 colon): > 100 µM
TGI (HOP-92 NSCLC): > 100 µM
TGI (ACHN renal): > 100 µM
TGI (CCRF-CEM leukemia): > 100 µM
TGI (SF-268 CNS): > 100 µM
TGI (NCI/ADR-RES ovarian): > 100 µM
TGI (RXF 393 renal): > 100 µM

CCN(CCCl)c1cc(CN(C)C)cc(NC(=O)c2ccc(C(=O)Nc3ccccc3)cc2)c1
TGI (UACC-62 melanoma): 4.03 µM
TGI (MDA-MB-435): 0.613 µM
TGI (SNB-75 CNS): 4.13 µM
TGI (HCT-116 colon): 11.5 µM
TGI (HCC-2998 colon): 2.51 µM
TGI (HOP-92 NSCLC): 3.87 µM
TGI (CCRF-CEM leukemia): 1.14 µM
TGI (SF-268 CNS): 13.6 µM
TGI (NCI/ADR-RES ovarian): 11.4 µM
TGI (RXF 393 renal): 0.307 µM
